≈ marks a conversion by molar mass, not a printed value.
Legend:
Format in all cases: functional
[1] = test system: Sphingomonas paucimobilis; experiment: Antibacterial activity against Flavobacterium devorans ATCC 10829 incubated for 24 hrs
[2] = test system: Staphylococcus aureus; experiment: Antibacterial activity against Staphylococcus aureus ATCC 29737 incubated for 24 hrs
[3] = test system: Aspergillus niger; experiment: Antifungal activity against Aspergillus niger NCIM 1196 incubated for 48 hrs
[4] = test system: Bacillus cereus; experiment: Antibacterial activity against Bacillus cereus ATCC 6630 incubated for 24 hrs
[5] = test system: Penicillium chrysogenum; experiment: Antifungal activity against Penicillium chrysogenum NCIM 723 incubated for 48 hrs
[6] = test system: Micrococcus luteus; experiment: Antibacterial activity against Micrococcus Luteus ATCC 398 incubated for 24 hrs
[7] = test system: Curvularia lunata; experiment: Antifungal activity against Curvularia lunata NCIM 1131 incubated for 48 hrs
[8] = test system: Escherichia coli; experiment: Antibacterial activity against Escherichia coli NCIM 2256 incubated for 24 hrs
[9] = test system: Pseudomonas fluorescens; experiment: Antibacterial activity against Pseudomonas fluorescens NCIM 2173 incubated for 24 hrs
[10] = test system: Staphylococcus aureus; experiment: Antibacterial activity against Staphylococcus aureus by agar dilution method
[11] = test system: Escherichia coli; experiment: Antibacterial activity against Escherichia coli by agar dilution method
[12] = test system: Pseudomonas aeruginosa; experiment: Antibacterial activity against Pseudomonas aeruginosa by agar dilution method
[13] = test system: Bacillus cereus; experiment: Antibacterial activity against Bacillus cereus by agar dilution method
[14] = test system: Escherichia coli; experiment: Antibacterial activity against ESBL-producing Escherichia coli ATCC 25925 by CLSI-based broth dilution method
[15] = test system: Staphylococcus aureus; experiment: Antibacterial activity against methicillin-sensitive Staphylococcus aureus by CLSI-based broth dilution method
[16] = test system: Klebsiella pneumoniae; experiment: Antibacterial activity against Klebsiella pneumoniae ATCC 27736 by CLSI-based broth dilution method
[17] = test system: Enterococcus faecium; experiment: Antibacterial activity against vancomycin-resistant Enterococcus faecium by CLSI-based broth dilution method; conditions: time 24 hrs
[18] = test system: Staphylococcus aureus; experiment: Antibacterial activity against methicillin-resistant Staphylococcus aureus ATCC 25923 by CLSI-based broth dilution method
[19] = test system: Pseudomonas aeruginosa; experiment: Antibacterial activity against Pseudomonas aeruginosa ATCC 27853 by CLSI-based broth dilution method
[20] = test system: Staphylococcus aureus; experiment: Antibacterial activity against Staphylococcus aureus MTCC 96 incubated for 24 hrs by macrodilution tube method
[21] = test system: Bacillus cereus; experiment: Antibacterial activity against Bacillus cereus MTCC 430 incubated for 24 hrs by macrodilution tube method

Q: For `O=c1cc(OCc2cn(Cc3cccc(Cl)c3)nn2)c2ccccc2o1`, which MIC [1] is on record?
A: 2 µg/mL (≈ 5.44 µM)

Q: And the MIC [2]?
A: 2 µg/mL (≈ 5.44 µM)

Q: What about the MIC [3] of the same compound?
A: 2 µg/mL (≈ 5.44 µM)

Q: What about the MIC [4] of the same compound?
A: 2 µg/mL (≈ 5.44 µM)

Q: And the MIC [5]?
A: 2 µg/mL (≈ 5.44 µM)

Q: What about the MIC [6] of the same compound?
A: 2 µg/mL (≈ 5.44 µM)

Q: What about the MIC [7] of the same compound?
A: 2 µg/mL (≈ 5.44 µM)

Q: And the MIC [8]?
A: 2 µg/mL (≈ 5.44 µM)

Q: And the MIC [9]?
A: 2 µg/mL (≈ 5.44 µM)

Q: Which results are given for `COc1ccc(-c2nn(-c3ccccc3)cc2/C=N/NC(=O)c2cccc(-n3cc(-c4ccccc4)nn3)c2)cc1`?
A: MIC [10]: 2 µg/mL (≈ 3.71 µM); MIC [11]: 2 µg/mL (≈ 3.71 µM); MIC [12]: 2 µg/mL (≈ 3.71 µM); MIC [13]: 2 µg/mL (≈ 3.71 µM)

Q: For `N=C(N)c1ccc2[nH]c(-c3ccc(OCc4cn(-c5ccccc5)nn4)cc3)nc2c1`, which MIC [14] is on record?
A: 16 µg/mL (≈ 39.1 µM)

Q: And the MIC [15]?
A: 16 µg/mL (≈ 39.1 µM)

Q: What about the MIC [16] of the same compound?
A: 16 µg/mL (≈ 39.1 µM)

Q: What about the MIC [17] of the same compound?
A: 16 µg/mL (≈ 39.1 µM)

Q: What about the MIC [18] of the same compound?
A: 16 µg/mL (≈ 39.1 µM)

Q: What about the MIC [19] of the same compound?
A: 16 µg/mL (≈ 39.1 µM)

Q: Which results are given for `c1ccc(-n2cc(COc3ccc(-c4nc5cc(C6=NCCN6)ccc5[nH]4)cc3)nn2)cc1`?
A: MIC [14]: 8 µg/mL (≈ 18.4 µM); MIC [15]: 8 µg/mL (≈ 18.4 µM); MIC [16]: 8 µg/mL (≈ 18.4 µM); MIC [17]: 8 µg/mL (≈ 18.4 µM); MIC [18]: 8 µg/mL (≈ 18.4 µM); MIC [19]: 8 µg/mL (≈ 18.4 µM)

Q: Which results are given for `O=C1CCCC2=C1C(c1ccccc1)c1cc3cc(OCc4cn(-c5ccnc6cc(Cl)ccc56)nn4)ccc3cc1O2` (stereo not drawn)?
A: MIC [20]: 16 µg/mL (≈ 27.3 µM); MIC [21]: 16 µg/mL (≈ 27.3 µM)

Q: With `O=c1cc(OCc2cn(Cc3cccc([N+](=O)[O-])c3)nn2)c2ccccc2o1` as the compound, how does the MIC [1] read?
A: 2 µg/mL (≈ 5.29 µM)

Q: And the MIC [2]?
A: 2 µg/mL (≈ 5.29 µM)

Q: And the MIC [3]?
A: 2 µg/mL (≈ 5.29 µM)

Q: And the MIC [4]?
A: 2 µg/mL (≈ 5.29 µM)

Q: What about the MIC [5] of the same compound?
A: 2 µg/mL (≈ 5.29 µM)

Q: And the MIC [6]?
A: 2 µg/mL (≈ 5.29 µM)

Q: What about the MIC [7] of the same compound?
A: 2 µg/mL (≈ 5.29 µM)

Q: What about the MIC [8] of the same compound?
A: 2 µg/mL (≈ 5.29 µM)

Q: And the MIC [9]?
A: 2 µg/mL (≈ 5.29 µM)

Q: `O=C(N/N=C/c1cn(-c2ccccc2)nc1-c1ccccc1)c1cccc(-n2cc(-c3ccccc3)nn2)c1` was tested. Which MIC [10] did it give?
A: 8 µg/mL (≈ 15.7 µM)

Q: And the MIC [11]?
A: 8 µg/mL (≈ 15.7 µM)

Q: And the MIC [12]?
A: 8 µg/mL (≈ 15.7 µM)

Q: And the MIC [13]?
A: 8 µg/mL (≈ 15.7 µM)

Q: Which MIC [10] does the source give for `O=C(N/N=C/c1cn(-c2ccccc2)nc1-c1ccc(F)cc1)c1cccc(-n2cc(-c3ccccc3)nn2)c1` here?
A: 2 µg/mL (≈ 3.79 µM)

Q: And the MIC [11]?
A: 2 µg/mL (≈ 3.79 µM)

Q: What about the MIC [12] of the same compound?
A: 2 µg/mL (≈ 3.79 µM)

Q: And the MIC [13]?
A: 2 µg/mL (≈ 3.79 µM)

Q: Which results are given for `N=C(N)c1ccc2[nH]c(-c3ccc(OCc4cn(Cc5ccccc5)nn4)cc3)nc2c1`?
A: MIC [14]: 16 µg/mL (≈ 37.8 µM); MIC [15]: 16 µg/mL (≈ 37.8 µM); MIC [16]: 16 µg/mL (≈ 37.8 µM); MIC [17]: 16 µg/mL (≈ 37.8 µM); MIC [18]: 16 µg/mL (≈ 37.8 µM); MIC [19]: 16 µg/mL (≈ 37.8 µM)

Q: What does the source list for `O=c1cc(OCc2cn(Cc3ccc([N+](=O)[O-])cc3)nn2)c2ccccc2o1`?
A: MIC [1]: 2 µg/mL (≈ 5.29 µM); MIC [2]: 2 µg/mL (≈ 5.29 µM); MIC [3]: 2 µg/mL (≈ 5.29 µM); MIC [4]: 2 µg/mL (≈ 5.29 µM); MIC [5]: 2 µg/mL (≈ 5.29 µM); MIC [6]: 2 µg/mL (≈ 5.29 µM); MIC [7]: 2 µg/mL (≈ 5.29 µM); MIC [8]: 2 µg/mL (≈ 5.29 µM); MIC [9]: 2 µg/mL (≈ 5.29 µM)

Q: Which results are given for `COc1ccc(-n2cc(COc3ccc(-c4nc5cc(C(=N)NC(C)C)ccc5[nH]4)cc3)nn2)cc1`?
A: MIC [14]: 8 µg/mL (≈ 16.6 µM); MIC [15]: 8 µg/mL (≈ 16.6 µM); MIC [16]: 8 µg/mL (≈ 16.6 µM); MIC [17]: 8 µg/mL (≈ 16.6 µM); MIC [18]: 8 µg/mL (≈ 16.6 µM); MIC [19]: 8 µg/mL (≈ 16.6 µM)

Q: With `N=C(N)c1ccc2[nH]c(-c3ccc(OCc4cn(-c5ccc(Cl)cc5)nn4)cc3)nc2c1` as the compound, how does the MIC [14] read?
A: 16 µg/mL (≈ 36 µM)

Q: What about the MIC [15] of the same compound?
A: 16 µg/mL (≈ 36 µM)

Q: What about the MIC [16] of the same compound?
A: 16 µg/mL (≈ 36 µM)

Q: And the MIC [17]?
A: 16 µg/mL (≈ 36 µM)

Q: And the MIC [18]?
A: 16 µg/mL (≈ 36 µM)

Q: What about the MIC [19] of the same compound?
A: 16 µg/mL (≈ 36 µM)

Q: For `Cc1ccc(C2C3=C(CCCC3=O)Oc3cc4ccc(OCc5cn(-c6ccnc7cc(Cl)ccc67)nn5)cc4cc32)cc1` (stereo not drawn), which MIC [20] is on record?
A: 16 µg/mL (≈ 26.7 µM)

Q: And the MIC [21]?
A: 16 µg/mL (≈ 26.7 µM)

Q: How did the MIC [20] turn out when `CC1(C)CC(=O)C2=C(C1)Oc1cc3ccc(OCc4cn(-c5ccnc6cc(Cl)ccc56)nn4)cc3cc1C2c1ccc([N+](=O)[O-])cc1` (stereo not drawn) was run?
A: 16 µg/mL (≈ 24.3 µM)

Q: What about the MIC [21] of the same compound?
A: 16 µg/mL (≈ 24.3 µM)

Q: `CC(C)NC(=N)c1ccc2[nH]c(-c3ccc(OCc4cn(-c5ccccc5)nn4)cc3)nc2c1` was tested. Which MIC [14] did it give?
A: 8 µg/mL (≈ 17.7 µM)

Q: And the MIC [15]?
A: 8 µg/mL (≈ 17.7 µM)

Q: And the MIC [16]?
A: 8 µg/mL (≈ 17.7 µM)

Q: And the MIC [17]?
A: 8 µg/mL (≈ 17.7 µM)

Q: And the MIC [18]?
A: 8 µg/mL (≈ 17.7 µM)

Q: And the MIC [19]?
A: 8 µg/mL (≈ 17.7 µM)

Q: What does the source list for `NC[C@H]1O[C@H](O[C@H]2[C@H](O)[C@@H](O[C@H]3O[C@H](CO)[C@@H](O)[C@H](N)[C@H]3O)[C@H](N)C[C@@H]2N)[C@H](O)[C@@H](O)[C@@H]1O` [KANAMYCIN]?
A: MIC [1]: 2 µg/mL (≈ 4.13 µM); MIC [2]: 2 µg/mL (≈ 4.13 µM); MIC [4]: 2 µg/mL (≈ 4.13 µM); MIC [6]: 2 µg/mL (≈ 4.13 µM); MIC [8]: 2 µg/mL (≈ 4.13 µM); MIC [9]: 2 µg/mL (≈ 4.13 µM)

Q: With `O=C(N/N=C/c1cn(-c2ccccc2)nc1-c1cccc(O)c1)c1cccc(-n2cc(-c3ccccc3)nn2)c1` as the compound, how does the MIC [10] read?
A: 2 µg/mL (≈ 3.81 µM)

Q: What about the MIC [11] of the same compound?
A: 2 µg/mL (≈ 3.81 µM)

Q: What about the MIC [12] of the same compound?
A: 2 µg/mL (≈ 3.81 µM)

Q: And the MIC [13]?
A: 2 µg/mL (≈ 3.81 µM)

Q: With `Clc1ccc(COC(Cn2ccnc2)c2ccc(Cl)cc2Cl)c(Cl)c1` (stereo not drawn) [MICONAZOLE] as the compound, how does the MIC [3] read?
A: 16 µg/mL (≈ 38.4 µM)

Q: And the MIC [5]?
A: 16 µg/mL (≈ 38.4 µM)

Q: And the MIC [7]?
A: 16 µg/mL (≈ 38.4 µM)

Q: Which results are given for `CC1(C)CC(=O)C2=C(C1)Oc1cc3ccc(OCc4cn(-c5ccnc6cc(Cl)ccc56)nn4)cc3cc1C2c1ccc(Cl)cc1` (stereo not drawn)?
A: MIC [20]: 16 µg/mL (≈ 24.7 µM); MIC [21]: 16 µg/mL (≈ 24.7 µM)

Q: `COc1ccc(-n2cc(COc3ccc(-c4nc5cc(C6=NCCN6)ccc5[nH]4)cc3)nn2)cc1` was tested. Which MIC [14] did it give?
A: 8 µg/mL (≈ 17.2 µM)

Q: And the MIC [15]?
A: 8 µg/mL (≈ 17.2 µM)

Q: What about the MIC [16] of the same compound?
A: 8 µg/mL (≈ 17.2 µM)

Q: And the MIC [17]?
A: 8 µg/mL (≈ 17.2 µM)

Q: What about the MIC [18] of the same compound?
A: 8 µg/mL (≈ 17.2 µM)

Q: And the MIC [19]?
A: 8 µg/mL (≈ 17.2 µM)

Q: `CC(C)NC(=N)c1ccc2[nH]c(-c3ccc(OCc4cn(Cc5ccccc5)nn4)cc3)nc2c1` was tested. Which MIC [14] did it give?
A: 8 µg/mL (≈ 17.2 µM)

Q: What about the MIC [15] of the same compound?
A: 8 µg/mL (≈ 17.2 µM)

Q: What about the MIC [16] of the same compound?
A: 8 µg/mL (≈ 17.2 µM)

Q: What about the MIC [17] of the same compound?
A: 8 µg/mL (≈ 17.2 µM)

Q: What about the MIC [18] of the same compound?
A: 8 µg/mL (≈ 17.2 µM)

Q: And the MIC [19]?
A: 8 µg/mL (≈ 17.2 µM)

From ChEMBL document CHEMBL4699440, “Comprehensive review on the anti-bacterial activity of 1,2,3-triazole hybrids” (Eur J Med Chem, 2019)
